Measured values as given in article PMC11303713, “Allosteric inhibition of CFTR gating by CFTRinh-172 binding in the pore” (Nature Communications, 2024).
Several values for one entry are separate records, joined by “and”; a condition that tells them apart may be missing. Identical values can stand only once. Like-named read-outs stand apart in the source and are kept apart here.

How the values were obtained:
Assay in all cases: Inside-out patch-clamp inhibition of CFTR current by Inh-172
Type in all cases: cell-based
M348K-CFTR = target: T1, M348K-CFTR (Homo sapiens, UniProt P13569, M348K)
T1 construct: expressed in transfected cells; host or cells: CHO cells, pcDNA plasmid
Description: (§1) CHO cells were grown at 37 °C in Dulbecco’s modified Eagle’s medium supplemented with 10% (vol/vol) fetal bovine serum (Sigma-Aldrich, St. Louis, MO). pcDNA plasmids carrying the desired CFTR construct were transfected to CHO cells using PolyFect transfection reagent (Qiagen, Hilden, Germany) together with green fluorescence protein (GFP) cDNA (pEGFP-C3, Takara Bio, Shiga, Japan) that helps identify expression of CFTR. Cells were first incubated with the transfection reagents at 37 °C for 6-12 hours on sterile glass chips in 35-mm tissue culture dishes before transferred to 27 °C for incubation for 2–7 days. Primers for mutations were ordered from Integrated DNA Technologies (Coralville, IA) and were summarized in Supplementary Data. All CFTR mutants were prepared with QuikChange XL kit (Agilent, Santa Clara, CA) and sequenced at the DNA Core facility at University of Missouri-Columbia.
(§2) Patch-clamp pipettes were made from borosilicate capillary glass using a two-stage vertical puller (PP-81; Narishige, Amityville, NY). The pipette tips were fire polished with a homemade microforge to yield a pipette resistance of 2–5 MΩ when filled with a pipette solution containing (in mM): 140 NMDG-Cl (N-methyl-D-glucamine-chloride), 5 CaCl2, 2 MgCl2, and 10 HEPES, pH 7.4. For recordings, transfected cells on glass chips were transferred into a continuously perfused chamber on the stage of an inverted microscope (IX51; Olympus, Tokyo, Japan) with the perfusing solution containing (in mM): 150 NMDG-Cl, 2 MgCl2, 10 EGTA, 8 Tris, and 10 HEPES, pH 7.4. The membrane patch was excised to an inside-out configuration with a seal resistance >40 GΩ. CFTR currents were recorded with an amplifier (EPC9; HEKA, Holliston, MA), filtered through an eight-pole Bessel filter (LPF-8; Warner Instruments, Hamden, CT) at 100 Hz and digitized to a computer at a sampling rate of 500 Hz with Pulse software (version 8.53; HEKA). The membrane potential was held at −30 mV. Solution exchange was achieved by a fast solution change system (SF-77B; Warner Instruments). Inh-172 was obtained from the CFTR Chemical Compound Program supported by the Cystic Fibrosis Foundation. All experiments were performed at room temperature.
(§3) The steady state mean currents were measured in the Igor Pro software (version 8.0; WaveMetrics). The mean baseline currents were subtracted from the steady state mean currents before the data were used to determine the degrees of inhibition. The degrees of inhibition by CFTR inhibitor 172 were calculated based on the equation:1 %inhibition=1−IInh−172/I0X100% where I0 and Iinh−172 represent uninhibited and inhibited currents, respectively. The IC50 and Hill coefficients were obtained by fitting percent inhibition as a function of [Inh-172] with the Hill equation:2 %inhibition=base+(max−base)/1+xhalf/x^rate where max and base represent the […] percent inhibition by Inh-172, x represents the concentration of Inh-172, and the rate is the Hill coefficient. The estimated IC50 (xhalf) and Hill coefficients are listed in Table 1 as mean ± standard deviation. Each patch-clamp recording was made from a separate cell.

[1] = target: T2, h-pTMD2-h-CFTR (human CFTR with pig CFTR's TMD2) (Homo sapiens, UniProt P13569, A1009S/A789T/A797V/A842T/E1221D/E815D/F931L/G885K/H897K/H950R/I1005V/I1226V/I853V/I869V/I982V/INS1173D/K1174Q/K1177R/K830R/L805I/L889P/M1028L/M837V/M929L/N1184D/N782S/N886K/P888S/Q1012K/Q1035H/R1128T/R899A/S1196Q/S877C/S898G/S912A/T1171A/T1176N/T1179F/T1220V/T788A/T925G/V1017L/V1056I/V794M/W882C/Y1182S); conditions: for inhibition at 0.5 µM: 500 nM Inh-172; for inhibition at 1 µM: 1000 nM Inh-172; for inhibition at 10 µM: 10000 nM Inh-172
T2 construct: expressed in transfected cells; host or cells: CHO cells, pcDNA plasmid
Description: as §1, §2, §3

[2] = target: T3, p-hTMD2-p-CFTR (pig CFTR with human CFTR's TMD2) (Sus scrofa, UniProt Q6PQZ2, A1172T/A789T/A900R/A913S/C878S/C883W/D1186N/D1223E/D816E/DEL1175-1175/F1181T/G899S/G926T/H1036Q/I1057V/I806L/K1013Q/K886G/K887N/K898H/L1018V/L1029M/L930M/L932F/M795V/N1178T/P890L/Q1176K/Q1198S/R1179K/R831K/R951H/S1010A/S1184Y/S783N/S889P/T1129R/T790A/T843A/V1006I/V1222T/V1228I/V798A/V838M/V854I/V870I/V983I)
T3 construct: expressed in transfected cells; host or cells: CHO cells, pcDNA plasmid
Description: as §1, §2, §3

[3] = 100 nM Inh-172, read-out: percent inhibition of current, Mean
[4] = 500 nM Inh-172, read-out: percent inhibition of current, Mean
[5] = 1000 nM Inh-172, read-out: percent inhibition of current, Mean
[6] = 1000 nM Inh-172, read-out: percent inhibition of current, individual cell
[7] = 5000 nM Inh-172, read-out: percent inhibition of current, Mean
[8] = 5000 nM Inh-172, read-out: percent inhibition of current, individual cell
[9] = 10000 nM Inh-172, read-out: percent inhibition of current, Mean
[10] = 10000 nM Inh-172, read-out: percent inhibition of current, individual cell
[11] = read-out: percent inhibition of current, Mean
[12] = read-out: percent inhibition of current, individual cell

T2 sequence (P13569 with tags, fused parts or gaps with the stated changes): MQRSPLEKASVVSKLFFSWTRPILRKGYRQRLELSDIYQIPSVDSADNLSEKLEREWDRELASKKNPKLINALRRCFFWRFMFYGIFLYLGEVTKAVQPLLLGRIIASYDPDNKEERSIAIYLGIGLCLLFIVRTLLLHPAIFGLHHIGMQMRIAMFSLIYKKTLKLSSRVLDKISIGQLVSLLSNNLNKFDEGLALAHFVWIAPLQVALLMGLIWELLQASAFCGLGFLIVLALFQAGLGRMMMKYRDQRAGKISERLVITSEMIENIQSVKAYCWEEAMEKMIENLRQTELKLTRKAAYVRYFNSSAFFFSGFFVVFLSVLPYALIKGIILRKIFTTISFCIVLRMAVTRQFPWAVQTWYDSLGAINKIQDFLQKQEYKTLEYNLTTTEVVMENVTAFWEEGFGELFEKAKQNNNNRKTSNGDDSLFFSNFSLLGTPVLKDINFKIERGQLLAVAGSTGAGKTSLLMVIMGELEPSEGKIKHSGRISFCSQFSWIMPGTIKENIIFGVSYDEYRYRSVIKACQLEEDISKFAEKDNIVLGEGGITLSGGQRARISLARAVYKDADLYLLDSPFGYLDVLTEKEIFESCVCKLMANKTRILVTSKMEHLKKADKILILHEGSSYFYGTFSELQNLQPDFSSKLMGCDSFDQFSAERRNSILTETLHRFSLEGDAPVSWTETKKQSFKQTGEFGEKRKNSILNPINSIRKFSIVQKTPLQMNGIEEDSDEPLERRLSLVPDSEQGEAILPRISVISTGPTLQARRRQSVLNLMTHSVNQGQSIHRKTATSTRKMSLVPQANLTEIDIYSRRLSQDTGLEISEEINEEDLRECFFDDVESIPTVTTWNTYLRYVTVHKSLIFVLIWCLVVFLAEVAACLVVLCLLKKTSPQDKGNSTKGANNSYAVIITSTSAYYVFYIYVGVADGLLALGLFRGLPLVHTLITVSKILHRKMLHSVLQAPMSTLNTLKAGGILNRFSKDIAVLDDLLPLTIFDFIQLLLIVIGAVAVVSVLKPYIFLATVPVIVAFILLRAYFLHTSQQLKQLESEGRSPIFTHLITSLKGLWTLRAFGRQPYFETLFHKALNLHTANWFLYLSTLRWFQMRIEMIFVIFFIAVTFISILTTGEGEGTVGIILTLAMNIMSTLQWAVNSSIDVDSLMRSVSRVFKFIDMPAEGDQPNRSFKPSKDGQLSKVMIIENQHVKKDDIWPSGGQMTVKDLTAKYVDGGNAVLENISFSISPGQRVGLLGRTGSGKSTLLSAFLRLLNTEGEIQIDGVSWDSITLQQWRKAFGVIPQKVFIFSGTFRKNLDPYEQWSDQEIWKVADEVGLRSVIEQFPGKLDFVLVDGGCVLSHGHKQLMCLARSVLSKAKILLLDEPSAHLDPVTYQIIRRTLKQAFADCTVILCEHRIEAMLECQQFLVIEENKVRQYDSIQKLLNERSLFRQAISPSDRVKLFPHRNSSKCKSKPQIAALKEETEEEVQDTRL
T3 sequence (Q6PQZ2 with tags, fused parts or gaps with the stated changes): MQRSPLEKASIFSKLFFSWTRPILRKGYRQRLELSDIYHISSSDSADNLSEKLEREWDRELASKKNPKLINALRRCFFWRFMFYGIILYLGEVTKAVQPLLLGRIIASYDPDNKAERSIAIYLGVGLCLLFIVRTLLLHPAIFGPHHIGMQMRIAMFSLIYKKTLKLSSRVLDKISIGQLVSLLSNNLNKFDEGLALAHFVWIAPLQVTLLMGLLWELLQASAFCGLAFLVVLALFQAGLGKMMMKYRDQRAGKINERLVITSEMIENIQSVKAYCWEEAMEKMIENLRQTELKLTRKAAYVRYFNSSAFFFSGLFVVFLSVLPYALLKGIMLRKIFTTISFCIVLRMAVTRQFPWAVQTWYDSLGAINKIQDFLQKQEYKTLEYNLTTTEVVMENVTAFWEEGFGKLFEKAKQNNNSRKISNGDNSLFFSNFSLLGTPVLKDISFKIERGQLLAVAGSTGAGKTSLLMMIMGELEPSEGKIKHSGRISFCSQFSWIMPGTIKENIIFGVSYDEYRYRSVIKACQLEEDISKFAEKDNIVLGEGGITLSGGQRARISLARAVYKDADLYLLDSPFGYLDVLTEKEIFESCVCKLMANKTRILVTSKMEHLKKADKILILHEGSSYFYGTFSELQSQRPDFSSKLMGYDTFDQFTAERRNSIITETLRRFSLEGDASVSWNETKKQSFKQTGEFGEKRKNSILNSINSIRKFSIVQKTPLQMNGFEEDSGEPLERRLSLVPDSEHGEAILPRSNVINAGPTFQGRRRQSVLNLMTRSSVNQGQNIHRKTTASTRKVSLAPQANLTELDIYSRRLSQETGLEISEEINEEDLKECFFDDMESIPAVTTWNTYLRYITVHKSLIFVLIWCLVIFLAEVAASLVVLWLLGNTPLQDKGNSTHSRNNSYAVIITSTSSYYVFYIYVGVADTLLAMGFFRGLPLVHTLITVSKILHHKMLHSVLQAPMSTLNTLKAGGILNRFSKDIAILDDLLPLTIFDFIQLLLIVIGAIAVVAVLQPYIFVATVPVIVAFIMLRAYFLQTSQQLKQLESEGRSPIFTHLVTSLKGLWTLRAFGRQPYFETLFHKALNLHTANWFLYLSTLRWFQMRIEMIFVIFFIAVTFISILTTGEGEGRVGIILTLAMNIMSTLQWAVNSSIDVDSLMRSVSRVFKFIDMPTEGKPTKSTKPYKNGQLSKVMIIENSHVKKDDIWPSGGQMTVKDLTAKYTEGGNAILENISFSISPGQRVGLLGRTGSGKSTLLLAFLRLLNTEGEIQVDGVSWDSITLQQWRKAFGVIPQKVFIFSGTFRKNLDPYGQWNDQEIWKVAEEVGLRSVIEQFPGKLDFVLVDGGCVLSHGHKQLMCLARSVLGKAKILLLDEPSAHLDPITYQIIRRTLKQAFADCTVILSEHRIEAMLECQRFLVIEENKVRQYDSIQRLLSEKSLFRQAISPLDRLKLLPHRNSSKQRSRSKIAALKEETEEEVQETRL
T1 sequence (P13569 whole entry M348K): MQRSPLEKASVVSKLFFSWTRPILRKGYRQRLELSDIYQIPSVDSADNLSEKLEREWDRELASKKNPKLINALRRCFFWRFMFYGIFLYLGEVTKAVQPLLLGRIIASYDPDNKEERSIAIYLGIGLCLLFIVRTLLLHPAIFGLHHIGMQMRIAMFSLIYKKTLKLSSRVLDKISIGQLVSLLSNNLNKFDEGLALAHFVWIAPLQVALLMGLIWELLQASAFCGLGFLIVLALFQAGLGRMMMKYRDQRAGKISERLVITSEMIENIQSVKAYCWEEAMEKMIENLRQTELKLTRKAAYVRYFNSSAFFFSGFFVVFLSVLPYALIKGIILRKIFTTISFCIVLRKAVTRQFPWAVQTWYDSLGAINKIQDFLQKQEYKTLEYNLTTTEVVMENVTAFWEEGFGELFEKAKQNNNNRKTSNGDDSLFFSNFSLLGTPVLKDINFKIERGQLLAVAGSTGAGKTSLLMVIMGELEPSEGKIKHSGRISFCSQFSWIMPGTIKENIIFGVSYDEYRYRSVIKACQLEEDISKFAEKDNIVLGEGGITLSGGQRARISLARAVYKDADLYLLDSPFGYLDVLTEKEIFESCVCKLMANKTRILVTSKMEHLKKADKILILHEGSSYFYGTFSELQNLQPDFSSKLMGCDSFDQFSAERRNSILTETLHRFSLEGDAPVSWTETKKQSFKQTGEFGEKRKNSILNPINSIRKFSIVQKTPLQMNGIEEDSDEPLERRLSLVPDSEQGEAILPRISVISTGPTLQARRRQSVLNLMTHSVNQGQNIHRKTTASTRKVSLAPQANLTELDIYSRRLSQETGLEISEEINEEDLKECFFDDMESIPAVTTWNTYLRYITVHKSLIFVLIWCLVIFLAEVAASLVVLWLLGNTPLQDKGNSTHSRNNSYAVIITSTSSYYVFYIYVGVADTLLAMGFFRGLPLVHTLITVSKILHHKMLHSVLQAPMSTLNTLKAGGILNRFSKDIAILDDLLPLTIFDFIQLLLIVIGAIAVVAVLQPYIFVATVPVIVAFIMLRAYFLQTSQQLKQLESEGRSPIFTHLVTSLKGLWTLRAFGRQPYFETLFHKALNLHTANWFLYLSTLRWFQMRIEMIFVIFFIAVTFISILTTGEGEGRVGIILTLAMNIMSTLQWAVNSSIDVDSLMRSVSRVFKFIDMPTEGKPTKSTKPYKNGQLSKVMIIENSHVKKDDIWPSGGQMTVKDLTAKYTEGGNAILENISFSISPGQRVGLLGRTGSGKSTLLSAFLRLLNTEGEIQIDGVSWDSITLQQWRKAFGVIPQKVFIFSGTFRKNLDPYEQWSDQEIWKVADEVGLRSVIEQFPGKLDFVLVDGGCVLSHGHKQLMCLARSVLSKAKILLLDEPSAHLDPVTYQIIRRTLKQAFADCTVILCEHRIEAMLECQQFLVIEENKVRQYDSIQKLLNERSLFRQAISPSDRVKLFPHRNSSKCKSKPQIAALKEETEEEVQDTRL

Which results are given for `O=C(O)c1ccc(/C=C2\SC(=S)N(c3cccc(C(F)(F)F)c3)C2=O)cc1` [Inh-172, CFTRinh-172]?
percent inhibition of current, individual cell (M348K-CFTR; 100 nM Inh-172): 10.0 and 17.0 and 1.0 and 23.0; inhibition at 0.1 µM (M348K-CFTR; [3]): 12.8%; percent inhibition of current, individual cell (M348K-CFTR; 250 nM Inh-172): 31.0 and 36.0 and 35.0; inhibition at 0.25 µM (M348K-CFTR; 250 nM Inh-172, read-out: percent inhibition of current, Mean): 35.3%; inhibition at 0.25 µM (M348K-CFTR; 250 nM Inh-172, read-out: percent inhibition of current, individual cell): 39%; percent inhibition of current, individual cell (M348K-CFTR; 500 nM Inh-172): 50.0 and 41.0 and 62.0 and 56.0 and 63.0; inhibition at 0.5 µM (M348K-CFTR; [4]): 54.4%; percent inhibition of current, individual cell (M348K-CFTR; 1000 nM Inh-172): 61.0 and 64.0 and 60.0; inhibition at 1 µM (M348K-CFTR; [5]): 64.2%; inhibition at 1 µM (M348K-CFTR; [6]): 68%; percent inhibition of current, individual cell (M348K-CFTR; 5000 nM Inh-172): 94.0 and 84.0 and 81.0; inhibition at 5 µM (M348K-CFTR; [7]): 86.6%; inhibition at 5 µM (M348K-CFTR; [8]): 90%; percent inhibition of current, individual cell (M348K-CFTR; 10000 nM Inh-172): 89.0 and 83.0; inhibition at 10 µM (M348K-CFTR; [9]): 88%; inhibition at 10 µM (M348K-CFTR; [10]): 92%; Hill Coefficient (M348K-CFTR; M348K): 0.90 ± 0.10; IC50 (M348K-CFTR; M348K): 520 ± 60 nM; inhibition at 0.1 µM [1, 3]: 6.8%; inhibition at 0.5 µM [1, 11]: 18.8%; inhibition at 0.5 µM [1, 12]: 15%; inhibition at 1 µM [1, 11]: 28.5%; inhibition at 1 µM [1, 12]: 22%; inhibition at 5 µM [1, 7]: 56.5%; inhibition at 10 µM [1, 11]: 62.7%; inhibition at 10 µM [1, 12]: 68%; Hill Coefficient ([1]; h-pTMD2-h): 0.69 ± 0.04; IC50 ([1]; h-pTMD2-h): 4020 ± 280 nM; IC50 ([1]; human CFTR with pig TMD2, earlier manuscript version, peer review file): 4020 nM; percent inhibition of current, individual cell ([2]; 50 nM Inh-172): 48.0 and 39.0; inhibition at 0.05 µM ([2]; 50 nM Inh-172, read-out: percent inhibition of current, Mean): 46.3%; inhibition at 0.05 µM ([2]; 50 nM Inh-172, read-out: percent inhibition of current, individual cell): 52%; percent inhibition of current, individual cell ([2]; 100 nM Inh-172): 60.0 and 64.0 and 67.0 and 62.0 and 55.0; inhibition at 0.1 µM [2, 3]: 63.6%; inhibition at 0.1 µM ([2]; 100 nM Inh-172, read-out: percent inhibition of current, individual cell): 75%; percent inhibition of current, individual cell ([2]; 500 nM Inh-172): 71.0 and 78.0 and 69.0 and 61.0; inhibition at 0.5 µM [2, 4]: 72%; inhibition at 0.5 µM ([2]; 500 nM Inh-172, read-out: percent inhibition of current, individual cell): 81%; percent inhibition of current, individual cell ([2]; 1000 nM Inh-172): 84.0; inhibition at 1 µM [2, 5]: 79.8%; inhibition at 1 µM [2, 6]: 85%; percent inhibition of current, individual cell ([2]; 5000 nM Inh-172): 97.0 and 95.0; inhibition at 5 µM [2, 7]: 96%; inhibition at 5 µM [2, 8]: 96%; percent inhibition of current, individual cell ([2]; 10000 nM Inh-172): 98.0 and 100.0 and 90.0 and 93.0 and 91.0; inhibition at 10 µM [2, 9]: 95.6%; inhibition at 10 µM [2, 10]: 99%; Hill Coefficient ([2]; p-hTMD2-p): 0.54 ± 0.08; IC50 ([2]; p-hTMD2-p): 60 ± 20 nM; IC50 ([2]; pig CFTR with human TMD2, earlier manuscript version, peer review file): 55 nM
